In patent publication US12336991B2, “Factor XIIA inhibitors” (UNIVERSITY OF LEEDS, priority 2018, dated 2025):

Key:
Format in all cases: biochemical
FXa = FXa (Homo sapiens, UniProt P00742); experiment: Determination of selectivity: FXa inhibition, chromogenic substrate S2765 assay; conditions: fold selectivity for FXIIa over FXa
Summary of the method: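 Human FXa (5 nM) preincubated with compound (top 500 μM, 5% DMSO) 10 min at 37 °C in 50 mM Tris, 137 mM NaCl pH 7.4, then S2765 ([…]) added; A405 kinetics over 3 h at 37 °C. IC50 from initial rates, converted to Ki via Cheng-Prusoff.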

FXIIa = target: T1, FXIIa (Homo sapiens, UniProt P00748); experiment: Determination of Factor XIIa inhibition, chromogenic substrate S-2302 assay; conditions: human FXIIa alpha
T1 sequence (P00748 373-615 limits assumed): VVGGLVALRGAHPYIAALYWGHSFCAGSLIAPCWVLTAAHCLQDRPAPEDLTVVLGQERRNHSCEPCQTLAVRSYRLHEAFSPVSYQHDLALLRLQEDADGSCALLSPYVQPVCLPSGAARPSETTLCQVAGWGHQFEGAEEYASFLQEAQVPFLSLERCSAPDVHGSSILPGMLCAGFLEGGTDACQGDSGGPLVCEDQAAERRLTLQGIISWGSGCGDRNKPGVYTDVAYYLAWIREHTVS
T1 sequence (P00748 20-372 partner limits assumed): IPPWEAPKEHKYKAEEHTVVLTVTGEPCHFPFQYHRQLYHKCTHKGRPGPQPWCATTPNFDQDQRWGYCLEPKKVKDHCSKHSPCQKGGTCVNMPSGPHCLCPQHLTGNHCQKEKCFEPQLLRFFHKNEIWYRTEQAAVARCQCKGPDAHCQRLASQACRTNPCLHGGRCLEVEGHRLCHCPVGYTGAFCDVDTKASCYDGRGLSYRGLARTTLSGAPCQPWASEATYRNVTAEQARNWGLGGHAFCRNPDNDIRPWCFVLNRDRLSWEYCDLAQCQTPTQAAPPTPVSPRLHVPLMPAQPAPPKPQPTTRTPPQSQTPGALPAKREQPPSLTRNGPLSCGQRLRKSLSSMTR
Summary of the method: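 FXIIa (10 nM) preincubated with compound 10 min at 37° C. in 50 mM Tris, 137 mM NaCl pH 7.4, 5% DMSO, top concentration 500 μM, then S-2302 added ([…]). Absorbance at 405 nm read kinetically for 3 h; IC50 from initial rates, converted to Ki by Cheng-Prusoff.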

thrombin = target: T2, thrombin (Homo sapiens, UniProt P00734); experiment: Determination of selectivity: thrombin inhibition, chromogenic substrate GPR assay; conditions: fold selectivity for FXIIa over thrombin
T2 construct: FXa (5 nM) and thrombin (5 nM)
Summary of the method: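 Thrombin (5 nM) preincubated with compound 10 min at 37 °C in 50 mM Tris, 137 mM NaCl, pH 7.4, 5% DMSO, then GPR substrate ([…]) added. Absorbance at 405 nm read kinetically for 3 h; IC50 from initial rates, converted to Ki via Ki=IC50/(1+[S]/Km).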

Chain of FXa (P00742 235-488 limits assumed): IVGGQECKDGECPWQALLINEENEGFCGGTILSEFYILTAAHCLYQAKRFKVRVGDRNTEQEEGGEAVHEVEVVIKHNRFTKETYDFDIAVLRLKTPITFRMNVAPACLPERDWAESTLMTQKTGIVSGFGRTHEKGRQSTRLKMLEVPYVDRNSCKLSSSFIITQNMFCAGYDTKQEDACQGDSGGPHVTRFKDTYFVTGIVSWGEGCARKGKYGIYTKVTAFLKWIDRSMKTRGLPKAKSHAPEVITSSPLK
Chain of FXa (P00742 41-179 partner limits assumed): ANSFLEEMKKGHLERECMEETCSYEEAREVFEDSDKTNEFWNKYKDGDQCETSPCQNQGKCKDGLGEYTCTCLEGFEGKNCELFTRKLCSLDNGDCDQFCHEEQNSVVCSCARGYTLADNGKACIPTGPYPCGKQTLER

Structure (SMILES) | FXa (human)/FXIIa alpha (human) (FXa) | Ki (FXIIa) [nM] | Thrombin (human)/FXIIa alpha (human) (thrombin)
COc1ccc(C[C@@H]2C[C@@H](C(=O)NCc3ccc4c(c3)nnn4C)N(C(=O)[C@H]3CC(c4cccnc4C(F)(F)F)CN3)C2)cc1 (stereo partly drawn) [Example M05421] | ∘∘∘ | 200 to 2000 | +++ (fold selectivity values greater than 100)
COc1ccc(C[C@@H]2C[C@@H](C(=O)NCc3cc4cnccc4[nH]3)N(C(=O)C3NCCc4cc(Cl)ccc43)C2)cc1 (stereo partly drawn) [Example M00965] | ∘∘∘ | < 200 | +++ (fold selectivity values greater than 100)
COc1ccc(C[C@@H]2C[C@@H](C(=O)NCc3ccc4c(Cl)nn(C)c4c3)N(C(=O)[C@H](N)CCC(=O)N3CCCC3)C2)cc1 [Example M05449] | ∘∘∘ | < 200 | +++ (fold selectivity values greater than 100)
COc1ccc(C[C@@H]2C[C@@H](C(=O)NCc3ccc4c(c3)nnn4C)N(C(=O)[C@H]3C[C@@H](c4ccccc4)CN3)C2)cc1 [Example M05289] | ∘∘∘ | 200 to 2000 | +++ (fold selectivity values greater than 100)
Cn1cc(-c2ccc(C[C@@H]3C[C@@H](C(=O)NCc4ccc5c(c4)nnn5C)N(C(=O)[C@H](N)CCC(=O)N4CCCC4)C3)cc2)cn1 [Example M05341] | ∘∘∘ | 200 to 2000 | +++ (fold selectivity values greater than 100)
Cn1nnc2cc(CNC(=O)[C@@H]3C[C@@H](Cc4ccc(S(C)(=O)=O)cc4)CN3C(=O)[C@H]3C[C@@H](c4ccccc4)CN3)ccc21 [Example M05372] | ∘∘∘ | 200 to 2000 | ++ (fold selectivity value of 10 to 100)
Cn1nnc2cc(CNC(=O)[C@@H]3C[C@H](Nc4cnccn4)CN3C(=O)[C@H](N)CCC(=O)N3CCCC3)ccc21 [Example M05243] | ∘∘ | > 2000 | ++ (fold selectivity value of 10 to 100)
COc1cc(CNC(=O)[C@@H]2C[C@H](O)CN2C(=O)[C@H](N)CCc2ccccc2)ccc1CN [Example M05056] | ∘∘∘ | 200 to 2000 | +++ (fold selectivity values greater than 100)
Cn1nnc2cc(CNC(=O)[C@@H]3C[C@@H](Cc4ccc(OC(F)(F)F)cc4)CN3C(=O)[C@H]3C[C@@H](c4ccccc4)CN3)ccc21 [Example M05362] | ∘∘ | 200 to 2000 | ++ (fold selectivity value of 10 to 100)
COc1ccc(C[C@@H]2C[C@@H](C(=O)NCc3cc4ccncc4o3)N(C(=O)[C@H](N)CCC(=O)N3CCCC3)C2)cc1 [Example M05465] | ∘∘∘ | 200 to 2000 | +++ (fold selectivity values greater than 100)
Cc1ccccc1CC[C@@H](N)C(=O)N1CCC[C@H]1C(=O)NCc1ccc(CN)cc1 [Example M00760] | ∘∘ | > 2000 | + (fold selectivity values less than 10)
COc1ccc(C[C@@H]2C[C@@H](C(=O)NCc3ccc4c(c3)nnn4C)N(C(=O)[C@H]3CC(c4cccnc4F)CN3)C2)cc1 (stereo partly drawn) [Example M05418] | ∘∘∘ | 200 to 2000 | +++ (fold selectivity values greater than 100)
Cn1nnc2cc(CNC(=O)[C@@H]3C[C@@H](Cc4ccncc4)CN3C(=O)[C@H]3C[C@@H](c4ccccc4)CN3)ccc21 [Example M05288] | ∘∘∘ | > 2000 | ++ (fold selectivity value of 10 to 100)
COc1ccc(C[C@@H]2C[C@@H](C(=O)NCc3ccc4c(c3)nnn4C)N(C(=O)[C@H](N)CCC(=O)N3C4CCC3C(=O)NC4)C2)cc1 (stereo partly drawn) [Example M05460] | ∘∘∘ | 200 to 2000 | +++ (fold selectivity values greater than 100)
COc1ccc(C[C@@H]2C[C@@H](C(=O)NCc3ccc4c(c3)nnn4C)N(C(=O)[C@H](N)CC(O)c3ccccc3)C2)cc1 (stereo partly drawn) [Example M05379] | ∘∘∘ | 200 to 2000 | +++ (fold selectivity values greater than 100)
COc1ccc(C[C@@H]2C[C@@H](C(=O)NCc3ccc4c(c3)nnn4C)N(C(=O)[C@H](N)CCC(=O)N3CCNC(=O)C3)C2)cc1 [Example M05451] | ∘∘∘ | < 200 | +++ (fold selectivity values greater than 100)
CN(C)[C@H](CCC(=O)N1CCCC1)C(=O)N1C[C@H](Cc2ccncc2)C[C@H]1C(=O)NCc1ccc2c(c1)nnn2C [Example M05220] | ∘∘∘ | 200 to 2000 | +++ (fold selectivity values greater than 100)
Cc1cccc(CC[C@@H](N)C(=O)N2CCC[C@H]2C(=O)NCc2ccc(CN)cc2)c1 [Example M00762] | ∘∘ | > 2000 | + (fold selectivity values less than 10)
NCc1ncc(CNC(=O)[C@@H]2CCCN2C(=O)[C@H](N)CCc2ccccc2)s1 [Example M05099] | ∘∘ | > 2000 | + (fold selectivity values less than 10)
COc1cccc(CC2C[C@@H](C(=O)NCc3ccc4c(c3)nnn4C)N(C(=O)[C@H](N)CCC(=O)N3CCCC3)C2)c1 (stereo partly drawn) [Example M05300] | ∘∘∘ | 200 to 2000 | +++ (fold selectivity values greater than 100)
COc1ccc(C[C@@H]2C[C@@H](C(=O)NCc3ccc4c(c3)nnn4C)N(C(=O)[C@H]3CC(c4ccc(C(F)(F)F)cc4)CN3)C2)cc1 (stereo partly drawn) [Example M05345] | ∘∘ | > 2000 | ++ (fold selectivity value of 10 to 100)

Results, then the molecule that gave them:

FXa (human)/FXIIa alpha (human) (FXa) | Ki (FXIIa) [nM] | Thrombin (human)/FXIIa alpha (human) (thrombin) | Structure (SMILES)
∘ | > 2000 | ++ (fold selectivity value of 10 to 100) | Cn1nnc2cc(CNC(=O)[C@@H]3C[C@@H](Cc4cccc(F)c4)CN3C(=O)[C@H]3C[C@@H](c4ccccc4)CN3)ccc21 [Example M05327]
∘∘ | > 2000 | ++ (fold selectivity value of 10 to 100) | Cn1nnc2cc(CNC(=O)[C@@H]3C[C@H](NC(=O)CCCc4ccccc4)CN3C(=O)[C@H](N)CCc3ccccc3)ccc21 [Example M05196]
∘∘∘ | 200 to 2000 | ++ (fold selectivity value of 10 to 100) | COc1ccc(C[C@@H]2C[C@@H](C(=O)NCc3ccc4c(c3)nnn4C)N(C(=O)[C@H](N)CC3CCCc4ccccc43)C2)cc1 (stereo partly drawn) [Example M05413]
∘∘ | > 2000 | ++ (fold selectivity value of 10 to 100) | Cn1nnc2cc(CNC(=O)[C@@H]3CC(Cc4ccnc(F)c4)CN3C(=O)[C@H](N)CCC(=O)N3CCCC3)ccc21 (stereo partly drawn) [Example M05315]
∘∘ | > 2000 | ++ (fold selectivity value of 10 to 100) | Cn1nnc2cc(CNC(=O)[C@@H]3C[C@H](NCCCc4ccccc4)CN3C(=O)[C@H](N)CCc3ccccc3)ccc21 [Example M05206]
∘∘ | > 2000 | ++ (fold selectivity value of 10 to 100) | Cn1nnc2cc(CNC(=O)[C@@H]3C[C@@H](Cc4ccncc4)CN3C(=O)[C@@H](CCC(=O)N3CCCC3)NC(=O)Cc3ccccc3)ccc21 [Example M05267, (2S,4R)-1-((R)-5-Oxo-2-phenylacetylamino-5-pyrrolidin-1-yl-pentanoyl)-4-pyridin-4-ylmethyl-pyrrolidine-2-carboxylic acid (1-methyl-1H-benzotriazol-5-ylmethyl)-amide]
∘∘ | > 2000 | ++ (fold selectivity value of 10 to 100) | Cn1nnc2cc(CNC(=O)[C@@H]3C[C@@H](Cc4ccccc4C(F)(F)F)CN3C(=O)[C@H]3C[C@@H](c4ccccc4)CN3)ccc21 [Example M05357]
